These results are taken from article PMC12668310, “High‐Throughput Synthesis and Screening of a Cyanimide Library Identifies Selective Inhibitors of ISG15‐Specific Protease mUSP18” (Angewandte Chemie (International Ed. in English), 2025).

The target in the test is T1, mUSP18 (Mus musculus, UniProt Q9WTV6).
T1 construct: (46-368); His-tag (N); made in house
T1 sequence (Q9WTV6 46-368): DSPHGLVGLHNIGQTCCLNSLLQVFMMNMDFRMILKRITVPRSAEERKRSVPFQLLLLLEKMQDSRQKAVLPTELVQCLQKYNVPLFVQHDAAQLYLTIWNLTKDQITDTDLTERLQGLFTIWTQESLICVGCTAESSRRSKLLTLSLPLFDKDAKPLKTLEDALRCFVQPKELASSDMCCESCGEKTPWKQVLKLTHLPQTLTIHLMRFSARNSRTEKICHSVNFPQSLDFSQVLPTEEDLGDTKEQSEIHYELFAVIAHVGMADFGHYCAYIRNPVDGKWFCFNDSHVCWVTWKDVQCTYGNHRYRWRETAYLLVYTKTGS
Description: High-throughput screening, ISG15ct-RhoMP, single dose 1.25 µM. Conditions: mUSP18 %inhibition. The format is biochemical, murine.

Setting [1] is: carboxylic acid (CA) building block alone, read-out: %inh CA only.
[2] abbreviates: carboxylic acid (CA) with coupling reagents DIC/HOBT, read-out: %inh CA + DIC/HOBT.

Read-outs that look alike come from different tables or passages of the source.

For the molecule `CC1CCN(c2ncc(C(=O)O)s2)CC1` [CA172], the inhibition at 1.25 µM came to 9.83% under setting [1] and 13.4% under setting [2].

Turning to `O=C(O)C1CCN(c2ccc(=O)[nH]n2)CC1` [CA173], the inhibition at 1.25 µM is, setting by setting: under setting [1], 8.54%; under setting [2], 5.44%.

For `O=C(O)c1cnn(CC2CCCCO2)c1` (stereo not drawn) [CA174], the inhibition at 1.25 µM is 2.59% under setting [1] and 8.37% under setting [2].

Consider `Cc1cc(C(=O)O)c(C2CC2)s1` [CA175], for which the inhibition at 1.25 µM under setting [1] turned out to be 1.19% and the inhibition at 1.25 µM under setting [2] was found to be 12.1%.

`O=C(O)c1ccc(-n2ccnc2)nn1` [CA176]: the inhibition at 1.25 µM by setting is: under setting [1], 15.3%; under setting [2], 5.42%.

Turning to `O=C(O)c1c(-c2ccccc2)noc1C(F)F` [CA177], the inhibition at 1.25 µM is, setting by setting: under setting [1], 4.94%; under setting [2], 4.56%.

As for `O=C(O)C1(c2ccccc2Cl)CCOCC1` [CA178], the inhibition at 1.25 µM reads like this: under setting [1], 4.04%; under setting [2], 11.9%.

Turning to `Cc1noc(C)c1Cc1ccc(C(=O)O)o1` [CA179], the inhibition at 1.25 µM under setting [1] came out at 2.24% and the inhibition at 1.25 µM under setting [2] worked out at 4.32%.

For the molecule `Cc1cc(NS(=O)(=O)c2cccc(C(=O)O)c2)no1` [CA180], the inhibition at 1.25 µM under setting [1] was 2.04% and the inhibition at 1.25 µM under setting [2] was 3.97%.

Take `CN1CCN(C(=O)C2CC=CCC2C(=O)O)CC1` (stereo not drawn) [CA181]: the inhibition at 1.25 µM amounted to 2.59% under setting [1] and 16.4% under setting [2].

In the case of `O=C(O)c1ccc(S(=O)(=O)N2CCOCC2)cc1` [CA182], the inhibition at 1.25 µM runs as follows: under setting [1], 2.85%; under setting [2], 2.77%.

`O=C(O)Cc1csc(-n2cccc2)n1` [CA183]: the inhibition at 1.25 µM was determined as 4.52% under setting [1] and 3.13% under setting [2].

For `Cc1cc(-c2nc(C)sc2CC(=O)O)c(C)s1` [CA184], the inhibition at 1.25 µM worked out at 3.02% under setting [1] and 10.3% under setting [2].

Turning to `O=C(O)C1CC(=O)N(CCOc2ccccc2Cl)C1` (stereo not drawn) [CA185], the inhibition at 1.25 µM runs as follows: under setting [1], 3.64%; under setting [2], 9.2%.

Regarding `O=C(O)c1ccc(-n2ncc(Cl)c(Cl)c2=O)cc1` [CA186], the inhibition at 1.25 µM under setting [1] turned out to be 20.6% and the inhibition at 1.25 µM under setting [2] was found to be 9.85%.

`O=C(O)c1ccc(CN2CCOCC2)cc1` [CA187]: the inhibition at 1.25 µM is, setting by setting: under setting [1], 12.1%; under setting [2], -2.66%.

For the molecule `O=C(O)c1cnc(-c2ccco2)s1` [CA188], the inhibition at 1.25 µM was 10.2% under setting [1] and -0.34% under setting [2].

For the molecule `O=C(O)Cc1csc(-c2cccs2)n1` [CA189], the inhibition at 1.25 µM under setting [1] came out at 4.78% and the inhibition at 1.25 µM under setting [2] is -9.04%.

Consider `O=C(O)c1csc(-c2ccccn2)n1` [CA190], for which the inhibition at 1.25 µM under setting [1] was 9.48% and the inhibition at 1.25 µM under setting [2] came out at 6.54%.

For `Cc1noc(C)c1COc1ccc(CC(=O)O)cc1` [CA191], the inhibition at 1.25 µM was determined as 4.33% under setting [1] and 1.25% under setting [2].

Regarding `O=C(O)c1cnc(-c2cccs2)s1` [CA192], the inhibition at 1.25 µM reads like this: under setting [1], 11.7%; under setting [2], 0.91%.

Regarding `O=C(O)CC1=NN(c2ncc(C(F)(F)F)cc2Cl)C(=O)C1` [CA193], the inhibition at 1.25 µM is, setting by setting: under setting [1], 5.93%; under setting [2], 4.27%.

`O=C(O)c1cccc(COc2cccc(F)c2)c1` [CA194]: the inhibition at 1.25 µM under setting [1] stood at 9.72% and the inhibition at 1.25 µM under setting [2] came to 3.17%.

For the molecule `O=C(O)c1occc1COc1ccccc1` [CA195], the inhibition at 1.25 µM is 11% under setting [1] and 6.35% under setting [2].

For the molecule `Cc1nc(-c2cnn(C)c2)sc1C(=O)O` [CA196], the inhibition at 1.25 µM is, setting by setting: under setting [1], 6.54%; under setting [2], 3.44%.

For `O=C(O)C1CCN(C(=O)CCOc2ccccc2)CC1` [CA197], the inhibition at 1.25 µM reads like this: under setting [1], 4.78%; under setting [2], 1.19%.

As for `Cn1cc(S(=O)(=O)N2CCCC(C(=O)O)C2)cn1` (stereo not drawn) [CA198], the inhibition at 1.25 µM under setting [1] came to 0.78% and the inhibition at 1.25 µM under setting [2] is 2.3%.

With `O=C(O)c1cc(S(=O)(=O)N2CCOCC2)c[nH]1` [CA199], the inhibition at 1.25 µM stood at 1.4% under setting [1] and 2.51% under setting [2].

`COc1ccc(OCc2cc(C)on2)c(C(=O)O)c1` [CA200]: the inhibition at 1.25 µM was 0.4% under setting [1] and 3.72% under setting [2].

Regarding `O=C(O)C1CC(=O)N(CCN2CCOCC2)C1` (stereo not drawn) [CA201], the inhibition at 1.25 µM under setting [1] was 1.58% and the inhibition at 1.25 µM under setting [2] was found to be 1.88%.

Take `O=C(O)Cc1cccc(OCc2cccnc2)c1` [CA202]: the inhibition at 1.25 µM reads like this: under setting [1], 0.44%; under setting [2], 3.16%.

In the case of `CN(Cc1cccnc1)S(=O)(=O)c1cc(C(=O)O)n(C)c1` [CA203], the inhibition at 1.25 µM reads like this: under setting [1], 0.22%; under setting [2], 4.09%.

For the molecule `Cc1n[nH]c(C)c1S(=O)(=O)N1CCC(C(=O)O)CC1` [CA204], the inhibition at 1.25 µM was -0.12% under setting [1] and 3.04% under setting [2].

Regarding `Cc1ccc(-c2cc(C(=O)O)[nH]n2)o1` [CA205], the inhibition at 1.25 µM runs as follows: under setting [1], 0.0344%; under setting [2], 4.51%.

Consider `O=C(O)c1occc1CN1CCOCC1` [CA206], for which the inhibition at 1.25 µM reads like this: under setting [1], 1.55%; under setting [2], 4.49%.

Regarding `O=C(O)c1ccc(COc2ccccc2Br)cc1` [CA207], the inhibition at 1.25 µM runs as follows: under setting [1], -2.79%; under setting [2], 10.7%.

As for `O=C(O)c1cccc(-c2cnco2)c1` [CA208], the inhibition at 1.25 µM was 3.78% under setting [1] and 11.1% under setting [2].

Take `O=C1CCC(=O)N(c2ccc(C(=O)O)cc2)N1` [CA209]: the inhibition at 1.25 µM reads like this: under setting [1], -2.74%; under setting [2], 14.4%.

In the case of `O=C(O)c1coc(-c2cccnc2)n1` [CA210], the inhibition at 1.25 µM runs as follows: under setting [1], 21%; under setting [2], 4.16%.

`O=C(O)c1ccc(=O)n(Cc2ccccc2)n1` [CA211]: the inhibition at 1.25 µM turned out to be 14.5% under setting [1] and 0.49% under setting [2].

As to `Cc1nc(-c2cccnc2)sc1C(=O)O` [CA212], the inhibition at 1.25 µM is 10.5% under setting [1] and 0.87% under setting [2].

As for `CN1CCN(C(=O)c2ccccc2C(=O)O)CC1` [CA213], the inhibition at 1.25 µM reads like this: under setting [1], 9.22%; under setting [2], -1.04%.

In the case of `Cc1cc(C(=O)O)c(C)n1-c1ccon1` [CA214], the inhibition at 1.25 µM is, setting by setting: under setting [1], 6.76%; under setting [2], 33.1%.

As for `O=C(O)c1cccc(-c2ncn[nH]2)c1` [CA215], the inhibition at 1.25 µM turned out to be 8.13% under setting [1] and 1.55% under setting [2].

For `O=C(O)c1ccnn1C1CCOCC1` [CA216], the inhibition at 1.25 µM was found to be 6.01% under setting [1] and 2.43% under setting [2].

As to `COc1ccc(C(=O)O)cc1S(=O)(=O)N1CCCCCC1` [CA217], the inhibition at 1.25 µM is, setting by setting: under setting [1], 6.36%; under setting [2], 0.58%.

On to `Cn1nc(C(=O)N2CCOCC2)cc1C(=O)O` [CA218], for which the inhibition at 1.25 µM is, setting by setting: under setting [1], 7.94%; under setting [2], 0.97%.

For `Cc1nn(C2CCOCC2)c(C)c1C(=O)O` [CA219], the inhibition at 1.25 µM is 7.18% under setting [1] and -0.2% under setting [2].

Take `O=C(O)C1CCOC2(CCC2)C1` (stereo not drawn) [CA220]: the inhibition at 1.25 µM under setting [1] is 7.46% and the inhibition at 1.25 µM under setting [2] was -0.86%.

Take `O=C(O)c1cnn(CCN2CCCC2)c1` [CA221]: the inhibition at 1.25 µM reads like this: under setting [1], 5.71%; under setting [2], 3.5%.

For `O=C(O)C1(c2cccs2)CC1` [CA222], the inhibition at 1.25 µM is 3.38% under setting [1] and 3.8% under setting [2].

For `O=C(O)c1cc(-c2ccco2)on1` [CA223], the inhibition at 1.25 µM reads like this: under setting [1], 2.35%; under setting [2], 4.1%.

For the molecule `O=C(O)c1ccc(Cn2cc(Br)cn2)o1` [CA224], the inhibition at 1.25 µM under setting [1] worked out at 3.05% and the inhibition at 1.25 µM under setting [2] worked out at 5.82%.

For the molecule `O=C(O)C(c1ccccc1)n1cnnn1` (stereo not drawn) [CA225], the inhibition at 1.25 µM is -0.48% under setting [1] and -0.48% under setting [2].

For `Cc1csc(N2CCCC(C(=O)O)C2)n1` (stereo not drawn) [CA226], the inhibition at 1.25 µM is, setting by setting: under setting [1], 2.29%; under setting [2], 3.37%.

As for `CC(C(=O)O)n1nc(C(F)(F)F)cc1C1CC1` (stereo not drawn) [CA227], the inhibition at 1.25 µM is, setting by setting: under setting [1], 2.61%; under setting [2], 2.83%.

In the case of `O=C(O)C1CCCN1C(=O)Cc1ccccc1` (stereo not drawn) [CA228], the inhibition at 1.25 µM runs as follows: under setting [1], 2.77%; under setting [2], 4.1%.

Regarding `O=C(O)CC1(n2cccc2)CCCCC1` [CA229], the inhibition at 1.25 µM under setting [1] was found to be 3.52% and the inhibition at 1.25 µM under setting [2] was 5.66%.

Take `O=C(O)c1cc(S(=O)(=O)NCCCN2CCCC2=O)ccc1Cl` [CA230]: the inhibition at 1.25 µM came out at 4.86% under setting [1] and 3.56% under setting [2].

`O=C(O)c1ccc(OCn2cc(Cl)cn2)cc1` [CA231]: the inhibition at 1.25 µM runs as follows: under setting [1], 5.6%; under setting [2], 6.49%.

In the case of `O=C(O)Cc1cnn(-c2ccccc2)c1` [CA232], the inhibition at 1.25 µM under setting [1] was found to be 1.32% and the inhibition at 1.25 µM under setting [2] stood at 8.28%.

Turning to `CC(C)c1nc(Cn2cc(C(=O)O)ccc2=O)cs1` [CA233], the inhibition at 1.25 µM worked out at 1.25% under setting [1] and 15% under setting [2].

On to `CCS(=O)(=O)N1CCC(C(=O)O)(c2ccccc2)CC1` [CA234], for which the inhibition at 1.25 µM under setting [1] was determined as 19.5% and the inhibition at 1.25 µM under setting [2] is 0.71%.

With `O=C(O)c1ccc(CNS(=O)(=O)c2ccc(F)c(F)c2F)cc1` [CA235], the inhibition at 1.25 µM is 13.6% under setting [1] and 1.22% under setting [2].

As for `O=C(O)c1csc(C2CC2)n1` [CA236], the inhibition at 1.25 µM by setting is: under setting [1], 9.58%; under setting [2], 1.88%.

As for `CC1CCCC(N2CC(C(=O)O)CC2=O)C1C` (stereo not drawn) [CA237], the inhibition at 1.25 µM under setting [1] came to 7.37% and the inhibition at 1.25 µM under setting [2] was -3.69%.
